Source: patent publication US12503473B2, “Triazolopyrimidine compounds and their use in treating cancer” (Dizal (Jiangsu) Pharmaceutical Co., Ltd., priority 2018, dated 2025)

What was measured:
[1] = molecular target: T1, MCT4 (Homo sapiens, UniProt O15427); test: Assay (d): FLIPR BCECF lactate influx in INS-1 MCT4 cells; format: cell-based, rat; set-up: expressed in transfected cells; conditions: INS-1 cells stably expressing human MCT4; mean of at least three repeats; read-out: MCT4 FLIPR pIC50 (INS-1) (converted)
T1 sequence (O15427 1-465): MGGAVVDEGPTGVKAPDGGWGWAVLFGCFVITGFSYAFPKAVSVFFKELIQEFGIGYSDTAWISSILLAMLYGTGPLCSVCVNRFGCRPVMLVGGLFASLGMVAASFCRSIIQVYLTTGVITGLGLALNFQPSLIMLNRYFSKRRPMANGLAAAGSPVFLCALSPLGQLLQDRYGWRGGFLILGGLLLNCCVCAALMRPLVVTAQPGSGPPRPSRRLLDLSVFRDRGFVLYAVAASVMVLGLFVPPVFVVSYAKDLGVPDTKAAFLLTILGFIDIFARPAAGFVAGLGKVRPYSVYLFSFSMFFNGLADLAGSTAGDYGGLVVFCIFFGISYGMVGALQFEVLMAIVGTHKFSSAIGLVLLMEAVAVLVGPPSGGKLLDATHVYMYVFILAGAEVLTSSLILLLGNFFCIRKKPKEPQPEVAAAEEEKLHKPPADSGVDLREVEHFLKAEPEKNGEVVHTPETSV
Procedure: INS-1 MCT4 cells were generated through transfection of the parental cell background with the following DNA sequence, inserted into a pcDNA3.1 (ThermoFisher #V79020) mammalian expression vector:
The resultant cell pool was continually cultured at 37° C. and 5% CO2 under antibiotic selection in RPMI (Sigma #R0883) medium containing 1% L glutamine (Sigma #G7513), 10% FBS (Sigma #F7524), 10 mM [final] […] An individual clone was selected and expanded before being cryopreserved in a number of individual vials for continued use. Prior to testing in the biological assay, an individual INS-1 MCT4 cryovial was defrosted and continually passaged over a number of weeks—in the Geneticin selection media described previously—to obtain the requesite cell number.

[2] = molecular target: T2, MCT1 (Homo sapiens, UniProt P53985); test: Assay (c): FLIPR BCECF lactate influx in K562 cells; format: cell-based; conditions: mean of at least three repeats, read-out: MCT1 FLIPR pIC50 (K562) (converted)
T2 construct: a human erythroleukemia line predominantly expressing MCT1, a small amount of MCT2 and no MCT4; host or cells: K562
T2 sequence (P53985 1-500): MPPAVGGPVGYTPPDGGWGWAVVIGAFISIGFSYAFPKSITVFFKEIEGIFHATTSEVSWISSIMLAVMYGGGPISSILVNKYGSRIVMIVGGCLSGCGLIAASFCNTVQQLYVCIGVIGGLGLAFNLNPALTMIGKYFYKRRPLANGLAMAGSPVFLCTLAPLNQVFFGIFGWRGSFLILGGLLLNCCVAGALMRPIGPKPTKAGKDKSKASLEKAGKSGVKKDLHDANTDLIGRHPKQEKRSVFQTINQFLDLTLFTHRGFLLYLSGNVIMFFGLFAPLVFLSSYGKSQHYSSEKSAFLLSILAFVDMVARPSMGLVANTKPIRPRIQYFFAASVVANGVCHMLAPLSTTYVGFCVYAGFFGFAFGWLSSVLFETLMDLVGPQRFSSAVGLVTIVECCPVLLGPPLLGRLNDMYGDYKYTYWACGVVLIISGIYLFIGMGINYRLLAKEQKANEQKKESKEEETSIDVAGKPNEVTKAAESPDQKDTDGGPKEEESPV
Procedure: (§1) Cells were loaded with the pH sensitive dye BCECFAM(Invitrogen #B11150) before being washed to remove excess dye and seeded into the assay plates—directly onto the test compound—at a density of 15,000 cells/well (NCI—H358) or 30,000 cells/well (K562), in 30 μl HBSS with 1 mM [final] […] Assay plates were lidded and spun in a plate centrifuge at 170 g for 1 minute. Plates were then wrapped in foil and incubated in the dark for 1 hour at room temperature.
(§2) Following incubation with test compound, 10 μl of 25 mM Sodium-L-Lactate (Sigma #L7022) made up in HBSS with 1 mM [final] […] This addition was performed directly on the FLIPR Tetra platform (Molecular Devices) as part of a real-time kinetic read protocol. […] A percentage change from base-line was calculated for each test well and values normalised to control wells—treated with either DMSO (maximum assay signal) or chemistry related to that described in this patent (minimum assay signal)—before fitting concentration response curves to determine an IC50 value.

[3] = molecular target: T1, MCT4; test: Assay (a): lactate efflux from SK-Br-3 cells (lactate in media, 4 h); format: cell-based; set-up: a natively glycolytic human breast adenocarcinoma line predominantly expressing MCT4; host or cells: SK-Br-3; conditions: mean of at least three repeats (Example 32, marked *, two repeats), read-out: MCT4 lactate efflux pIC50 (SKBR3) (converted)
Procedure: Assay plates were lidded and incubated for 4 hours at 37° C. and 5% CO2.

[4] = molecular target: T1, MCT4; test: cell-based
Procedure: as §1, §2

Row | Compound | IC50 [1] | IC50 [2] | IC50 [3] | IC50 [4]
1 | Cc1nc2nc(C)c(C[C@@H]3CCN(c4ccc(-c5ccc(CN6CCOCC6)nn5)nc4)C3)c(C)n2n1 [Example 9, (R)-4-((6-(5-(3-((2,5,7-trimethyl-[1,2,4]triazolo[1,5-a]pyrimidin-6-yl)methyl)pyrrolidin-1-yl)pyridin-2-yl)pyridazin-3-yl)methyl)morpholine] |  | > 20000 nM | 0.501 nM | 15.8 nM
2 | Cc1nc2nc(C)c(C[C@@H]3CCN(c4ccc(-c5ccc(CN6CCOCC6)nn5)cc4)C3)c(C)n2n1 [Example 29, (R)-4-((6-(4-(3-((2,5,7-trimethyl-[1,2,4]triazolo[1,5-a]pyrimidin-6-yl)methyl)pyrrolidin-1-yl)phenyl)pyridazin-3-yl)methyl)morpholine] |  | > 15800 nM |  | 
3 | Cc1nc2nc(C)c(C[C@@H]3CCN(c4cnc(-c5ccc(CN6C[C@@H](C)N(C)C[C@H]6C)cc5)cn4)C3)c(C)n2n1 [Example 35, 2,5,7-trimethyl-6-(((R)-1-(5-(4-(((2R,5R)-2,4,5-trimethylpiperazin-1-yl)methyl)phenyl)pyrazin-2-yl)pyrrolidin-3-yl)methyl)-[1,2,4]triazolo[1,5-a]pyrimidine] |  | > 25100 nM | 0.631 nM | 15.8 nM
4 | Cc1nc2nc(C)c(C[C@@H]3CCN(c4cnc(-c5ccc(CN6C[C@@H](C)N(C)C[C@@H]6C)cc5)cn4)C3)c(C)n2n1 [Example 36, 2,5,7-trimethyl-6-(((R)-1-(5-(4-(((2S,5R)-2,4,5-trimethylpiperazin-1-yl)methyl)phenyl)pyrazin-2-yl)pyrrolidin-3-yl)methyl)-[1,2,4]triazolo[1,5-a]pyrimidine] |  | > 25100 nM | 0.501 nM | 
5 | Cc1nc2nc(C)c(C[C@@H]3CCN(c4cnc(-c5ccc(CN6CCN(CCO)CC6)cc5)cn4)C3)c(C)n2n1 [Example 41, 2-{4-[4-(5-{(3R)-3-[(2,5,7-trimethyl[1,2,4]triazolo[1,5-a]pyrimidin-6-yl)methyl]pyrrolidin-1-yl}pyrazin-2-yl)benzyl]piperazin-1-yl}ethanol] |  | > 25100 nM | 0.794 nM | 
6 | Cc1nc2nc(C)c(O[C@@H]3CCN(c4ccc(-c5ccc(CN6CCN7CCC[C@@H]7C6)nn5)cc4)C3)c(C)n2n1 [Example 67, 6-(((R)-1-(4-(6-(((R)-hexahydropyrrolo[1,2-a]pyrazin-2(1H)-yl)methyl)pyridazin-3-yl)phenyl)pyrrolidin-3-yl)oxy)-2,5,7-trimethyl-[1,2,4]triazolo[1,5-a]pyrimidine] |  | > 25100 nM | 2 nM | 63.1 nM
7 | Cc1nc2nc(C)c(O[C@@H]3CCN(c4ccc(-c5ccc(CN6CCN7CCC[C@H]7C6)nn5)cc4)C3)c(C)n2n1 [Example 68, 6-(((R)-1-(4-(6-(((S)-hexahydropyrrolo[1,2-a]pyrazin-2(1H)-yl)methyl)pyridazin-3-yl)phenyl)pyrrolidin-3-yl)oxy)-2,5,7-trimethyl-[1,2,4]triazolo[1,5-a]pyrimidine] |  | > 25100 nM | 3.16 nM | 100 nM
8 | Cc1nc2nc(C)c(C[C@@H]3CCN(c4cnc(-c5ccc(CN6CCCC6)nc5)cn4)C3)c(C)n2n1 [Example 82, (R)-2,5,7-trimethyl-6-((1-(5-(6-(pyrrolidin-1-ylmethyl)pyridin-3-yl)pyrazin-2-yl)pyrrolidin-3-yl)methyl)-[1,2,4]triazolo[1,5-a]pyrimidine] |  |  | 2.51 nM | 12.6 nM

More lines, now with the values ahead:

Row | IC50 [1] | IC50 [2] | IC50 [3] | IC50 [4] | Compound
9 | 3.16 nM | > 25100 nM | 2.51 nM | 12.6 nM | Cc1nc2nc(C)c(O[C@@H]3CCN(c4cnc(-c5ccc([C@@H](C)N6CCOCC6)cc5)cn4)C3)c(C)n2n1 (single isomer, unassigned) [Example 86]
10 | 3.98 nM | > 25100 nM | 1.26 nM | 12.6 nM | Cc1nc2nc(C)c(O[C@@H]3CCN(c4cnc(-c5ccc(C(C)N6CCOCC6)cc5)cn4)C3)c(C)n2n1 (single isomer, unassigned) [Example 87]
11 |  | > 25100 nM | 1.58 nM | 63.1 nM | Cc1nc2nc(C)c(C[C@@H]3CCN(c4cnc(-c5ccc(CN6CCN(C)C[C@H]6C)cc5)cn4)C3)c(C)n2n1 [Example 34, 6-(((R)-1-(5-(4-(((R)-2,4-dimethylpiperazin-1-yl)methyl)phenyl)pyrazin-2-yl)pyrrolidin-3-yl)methyl)-2,5,7-trimethyl-[1,2,4]triazolo[1,5-a]pyrimidine]
12 |  | > 25100 nM | 0.501 nM | 15.8 nM | Cc1nc2nc(C)c(C[C@@H]3CCN(c4cnc(-c5ccc(CN6CCN(C)C[C@@H]6C)cc5)cn4)C3)c(C)n2n1 [Example 50, 6-(((R)-1-(5-(4-(((S)-2,4-dimethylpiperazin-1-yl)methyl)phenyl)pyrazin-2-yl)pyrrolidin-3-yl)methyl)-2,5,7-trimethyl-[1,2,4]triazolo[1,5-a]pyrimidine]
13 |  | > 25100 nM | 0.631 nM | 12.6 nM | CC(=O)N1CCN(Cc2ccc(-c3cnc(N4CC[C@@H](Cc5c(C)nc6nc(C)nn6c5C)C4)cn3)cc2)CC1 [Example 58, (R)-1-(4-(4-(5-(3-((2,5,7-trimethyl-[1,2,4]triazolo[1,5-a]pyrimidin-6-yl)methyl)pyrrolidin-1-yl)pyrazin-2-yl)benzyl)piperazin-1-yl)ethanone]
14 |  | > 25100 nM |  |  | Cc1nc2nc(C)c(C[C@@H]3CCN(c4cnc(-c5ccc(CN6CCN(C)CC6)cc5)cn4)C3)c(C)n2n1 [Example 59, (R)-2,5,7-trimethyl-6-((1-(5-(4-((4-methylpiperazin-1-yl)methyl)phenyl)pyrazin-2-yl)pyrrolidin-3-yl)methyl)-[1,2,4]triazolo[1,5-a]pyrimidine]
15 |  | > 25100 nM |  |  | Cc1nc2nc(C)c(O[C@@H]3CCN(c4ccc(-c5ccc(CN6CCN(C)CC6)nn5)cc4)C3)c(C)n2n1 [Example 65, (R)-2,5,7-trimethyl-6-((1-(4-(6-((4-methylpiperazin-1-yl)methyl)pyridazin-3-yl)phenyl)pyrrolidin-3-yl)oxy)-[1,2,4]triazolo[1,5-a]pyrimidine]
16 |  | > 25100 nM |  |  | CC(=O)N1CCN(Cc2ccc(-c3ccc(N4CC[C@@H](Oc5c(C)nc6nc(C)nn6c5C)C4)cc3)nn2)CC1 [Example 71, (R)-1-(4-((6-(4-(3-((2,5,7-trimethyl-[1,2,4]triazolo[1,5-a]pyrimidin-6-yl)oxy)pyrrolidin-1-yl)phenyl)pyridazin-3-yl)methyl)piperazin-1-yl)ethan-1-one]
17 |  | > 25100 nM | 2.51 nM | 79.4 nM | CCN1CCN(Cc2ccc(-c3ccc(N4CC[C@@H](Oc5c(C)nc6nc(C)nn6c5C)C4)cc3)nn2)CC1 [Example 72, (R)-6-((1-(4-(6-((4-ethylpiperazin-1-yl)methyl)pyridazin-3-yl)phenyl)pyrrolidin-3-yl)oxy)-2,5,7-trimethyl-[1,2,4]triazolo[1,5-a]pyrimidine]
18 |  | > 25100 nM | 2 nM |  | Cc1nc2nc(C)c(O[C@@H]3CCN(c4cnc(-c5ccc(CN6CCN(C)CC6)cc5)nc4)C3)c(C)n2n1 [Example 76, (R)-2,5,7-trimethyl-6-((1-(2-(4-((4-methylpiperazin-1-yl)methyl)phenyl)pyrimidin-5-yl)pyrrolidin-3-yl)oxy)-[1,2,4]triazolo[1,5-a]pyrimidine]
19 |  |  | 2.51 nM | 6.31 nM | Cc1nc2nc(C)c(O[C@@H]3CCN(c4cnc(-c5ccc(CN6CCOCC6)cc5)cn4)C3)c(C)n2n1 [Example 78, (R)-4-(4-(5-(3-((2,5,7-trimethyl-[1,2,4]triazolo[1,5-a]pyrimidin-6-yl)oxy)pyrrolidin-1-yl)pyrazin-2-yl)benzyl)morpholine]
